The target in data set [1] is Tdp1 (Homo sapiens, UniProt Q9NUW8). Put plainly: Real-time detection of Tdp1 activity (fluorophore-quencher oligonucleotide biosensor). The format is biochemical. To be noted: 1.5 nM purified Tdp1, 50 nM biosensor, 26 °C, three independent experiments; read-out: IC50 (inhibition of Tdp-1). From the text: Previously, we designed a real-time oligonucleotide biosensor based on the capability of Tdp1 to remove fluorophore quenchers from the 3′ end of DNA [27]. The single-stranded substrate was a 16-mer oligonucleotide containing both a 5′-FAM fluorophore donor and a quenching 3′-BHQ moiety. When the quencher is removed by Tdp1, FAM fluorescence flares up and can be detected by a fluorimeter. Fluorescence intensity diminishes in the presence of an inhibitor; curves of the obtained Tdp1 activity versus inhibitor concentration can be used to calculate IC50 values. We also investigated some structurally related compounds obtained by previously developed methods; these compounds feature a modification either in a carbohydrate or heterocyclic moiety (Table 1).
Tdp1, sequence (Q9NUW8 whole entry): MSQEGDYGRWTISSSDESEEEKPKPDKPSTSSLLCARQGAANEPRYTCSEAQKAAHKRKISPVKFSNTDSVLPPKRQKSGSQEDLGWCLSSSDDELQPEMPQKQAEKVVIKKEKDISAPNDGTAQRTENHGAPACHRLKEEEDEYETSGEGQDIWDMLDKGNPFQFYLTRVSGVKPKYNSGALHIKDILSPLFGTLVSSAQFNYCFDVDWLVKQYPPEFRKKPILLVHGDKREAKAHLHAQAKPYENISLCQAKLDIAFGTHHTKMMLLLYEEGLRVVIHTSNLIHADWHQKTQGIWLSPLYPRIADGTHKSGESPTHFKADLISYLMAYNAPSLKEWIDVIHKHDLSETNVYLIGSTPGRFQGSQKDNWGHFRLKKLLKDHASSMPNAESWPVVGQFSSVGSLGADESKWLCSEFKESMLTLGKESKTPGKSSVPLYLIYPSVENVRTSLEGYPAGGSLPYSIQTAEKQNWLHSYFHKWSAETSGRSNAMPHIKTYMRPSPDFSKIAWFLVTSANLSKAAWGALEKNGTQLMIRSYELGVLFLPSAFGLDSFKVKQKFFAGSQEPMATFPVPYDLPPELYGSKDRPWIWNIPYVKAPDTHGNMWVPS
This procedure was reported in our previous work. The approach consists of fluorescence intensity measurement in a reaction of quencher removal from a fluorophore quencher–coupled DNA oligonucleotide catalyzed by Tdp1 in the presence of an inhibitor (the control samples contained 1% of DMSO). The reaction mixtures (200 μL) contained Tdp1 buffer (50 mM Tris-HCl pH 8.0, 50 mM NaCl, and 7 mM β-mercaptoethanol), 50 nM biosensor, an inhibitor being tested, and purified Tdp1 (1.5 nM). The biosensor was a single-stranded oligonucleotide (5′-[FAM] AAC GTC AGGGTC TTC C [BHQ]-3′) containing a fluorophore at the 5′ end (5,6-FAM) and Black Hole Quencher 1 (BHQ) at the 3′ end and was synthesized in the Laboratory of Biomedical Chemistry at the Institute of Chemical Biology and Fundamental Medicine (Novosibirsk, Russia).
The reactions were incubated at a constant temperature of 26 °C on a POLARstar OPTIMA fluorimeter (BMG LABTECH, GmbH, Ortenberg, Germany) to measure fluorescence every 55 s (ex. 485/em. 520 nm) during the linear phase (here, data from minute 0 to minute 8). The values of IC50 were determined using a six-point concentration response curve in three independent experiments and were calculated using MARS Data Analysis 2.0 (BMG LABTECH).

A short description of data set [2]: Intrinsic cytotoxicity, EZ4U Cell Proliferation and Cytotoxicity Assay. The format is cell-based, human. To be noted: human, HeLa cells (cervical cancer), 3 days, EZ4U assay. The method, then:
(§1) First, we assessed the toxicity of the compounds to HeLa cells (cervical cancer cells). Analysis of the intrinsic cytotoxicity of the compounds was examined in the EZ4U Cell Proliferation and Cytotoxicity Assay (Biomedica, Austria). The tested compounds were added to the medium (the volume of added reagents was 1/100 of the total volume of the culture medium, and the amount of DMSO (dimethyl sulfoxide) was 1% of the final volume), and the cell culture was monitored for 3 days. Control cells were grown in the presence of 1% DMSO. Intrinsic cytotoxicity of the compounds was either absent or negligible at concentrations up to 100 μM (>80% live cells) with the exception of compounds 2b, 2c, and 7, in the presence of which, at a concentration of 100 μM, 30–45% of the cells died (Table 1 and Figure 1).
(§2) Intrinsic toxicity of the compounds to human cell line HeLa (cervical cancer) was examined by means of the EZ4U Cell Proliferation and Cytotoxicity Assay (Biomedica, Wien, Austria), according to the manufacturer’s protocols. The cells were grown in Iscove’s modified Dulbecco’s medium (IMDM) with 40 μg/mL gentamicin, 50 IU/mL penicillin, 50 μg/mL streptomycin (MP Biomedicals), and 10% of fetal bovine serum (Biolot) in a 5% CO2 atmosphere. After formation of a 30–50%-confluent monolayer, one of the tested compounds was added to the medium (the volume of the added reagents was 1/100 of the total volume of the culture medium, and the amount of DMSO was 1% of the final volume), and the cell culture was monitored for 3 days. Control cells were grown in the presence of 1% DMSO. To assess the influence of the inhibitors on the cytotoxic effect of topotecan, the latter from the manufacturer ACTAVIS GROUP PTC ehf. (Bucharest, Romania) was used. First of all, 50% cytotoxic concentrations of topotecan and of each inhibitor were determined to attain a defined single-agent effect. Second, three independent tests were performed with each inhibitor in combination with topotecan.

For data set [3], the system named is HeLa cells. The description is as above. The format is cell-based, human. To be noted: for cells died: compound at 100 μM, 3 days. The method, then:
as §1, §2

The subject of data set [4] is HeLa cells. Put plainly: Cytotoxicity in combination with topotecan, EZ4U assay. In kind it is cell-based. To be noted: for change of cytotoxicity of the compound in the presence of topotecan (synergy): compound 1, 5, 20, 100 μM with 2 μM topotecan, Figure 2; for sensitizing effect on cytotoxicity of topotecan: Figure 3. The method, then:
To study the influence of the inhibitors on the cytotoxic effect of topotecan, the latter from the manufacturer ACTAVIS GROUP PTC ehf. was used. To select a nontoxic but effective concentration of the nucleoside compounds, we investigated their cytotoxicity in the presence of 2 μM topotecan (concentration causing the death of half the HeLa cells). Three independent cytotoxicity assays were performed with each inhibitor in combination with topotecan. For the cells treated with a nucleoside derivative alone, values in the control wells treated with 1% DMSO were set to 100% viability. For the cells treated with a combination of the drugs, the viability of cells treated only with topotecan was set to 100%.
as §2

Where [5] appears, read: compound at 20 μM, various doses of topotecan.

Entries after “also recorded” stand apart in the source; their conditions may differ. A value given as a limit tells only on which side of the number the result lay.

Data on 20 compounds can be found in publication PMC7465190, “Inhibition of Tyrosyl-DNA Phosphodiesterase 1 by Lipophilic Pyrimidine Nucleosides” (Molecules, 2020).

As for `O=c1[nH]c(=O)n([C@@H]2O[C@H](CO)[C@@H](O)[C@H]2O)cc1Br` [Compound 1c, 5-bromouridine, reference compound], the IC50 in data set [1] is greater than 50 µM.
As for `COc1ccn([C@@H]2O[C@H](COC(=O)c3ccccc3)[C@@H](OC(=O)c3ccccc3)[C@H]2OC(=O)c2ccccc2)c(=O)n1` [Compound 7, 2′,3′,5′-Tri-O-benzoyl-2-oxo-4-metoxypyrimidine], in data set [1], the IC50 came out at 2.91 ± 0.01 µM. Besides, the half-maximal cytotoxic concentration (CC50) at 3 days in data set [2] was greater than 100 µM. In addition, the cells died in data set [3] was 30–45%. Besides, the “change of cytotoxicity of the compound in the presence of topotecan (synergy)” value (from here on “change of cytotoxicity of the compound”) in data set [4] is on record as “significantly (p = 0.05, Mann–Whitney U test) enhanced; also recorded: synergistic effect with topotecan; also recorded: enhanced the cytotoxicity”. In addition, in data set [4] (setting [5]), the “sensitizing effect on cytotoxicity of topotecan” value (“sensitizing effect” for short) is on record as “doubled the cytotoxicity of topotecan; also recorded: doubling topotecan’s activity”.
In the case of `O=c1[nH]c(=O)n([C@@H]2O[C@H](CO)[C@@H](O)[C@H]2O)cc1Cl` [Compound 1f, 5-Chlorouridine, reference compound], the IC50 in data set [1] is greater than 50 µM.
On to `Cc1cn([C@@H]2O[C@H](COC(=O)c3ccccc3)[C@@H](OC(=O)c3ccccc3)[C@H]2OC(=O)c2ccccc2)c(=O)[nH]c1=O` [Compound 2e, 2′,3′,5′-Tri-O-benzoyl-5-methyluridine], for which the IC50 in data set [1] is 2.7 ± 0.6 µM. Moreover, the CC50 at 3 days in data set [2] was greater than 100 µM. Further, in data set [4], the “change of cytotoxicity of the compound” value was “Inactive”.
Take `Cc1cc(=O)[nH]c(=O)n1[C@@H]1O[C@H](COC(=O)c2ccccc2)[C@@H](OC(=O)c2ccccc2)[C@H]1OC(=O)c1ccccc1` [Compound 2g, 2′,3′,5′-Tri-O-benzoyl-6-methyluridine]: the IC50 in data set [1] stood at 3.4 ± 0.2 µM. For the same compound, the cytotoxic concentration (CC50) at 3 days in data set [2] is greater than 100 µM. Also, the “change of cytotoxicity of the compound” value in data set [4] is “significantly (p = 0.05, Mann–Whitney U test) enhanced; also recorded: synergistic effect with topotecan; also recorded: enhanced the cytotoxicity”. For the same compound, the “sensitizing effect” value in data set [4] (setting [5]) is listed as “doubled the cytotoxicity of topotecan; also recorded: doubling topotecan’s activity”.
For `O=C(OC[C@H]1O[C@@H](n2ccc(=O)[nH]c2=O)[C@H](O)[C@@H]1O)c1ccccc1` [Compound 3a, 5′-O-benzoyluridine], the IC50 in data set [1] was greater than 100 µM.
`O=C(OCC1OC(n2cc(Cl)c(=O)[nH]c2=O)C(OC(=O)c2ccccc2)C1OC(=O)c1ccccc1)c1ccccc1` (stereo not drawn) [Compound 2f, 2′,3′,5′-Tri-O-benzoyl-5-chlorouridine]: the IC50 in data set [1] turned out to be 3.6 ± 1.1 µM. For the same compound, the CC50 at 3 days in data set [2] was greater than 100 µM. In addition, in data set [4], the “change of cytotoxicity of the compound” value is listed as “Inactive”.
Take `O=c1[nH]c(=O)n([C@@H]2O[C@H](CO)[C@@H](O)[C@H]2O)cc1F` [Compound 1b, 5-Fluorouridine, reference compound]: the IC50 in data set [1] is greater than 50 µM.
The same measure, in the same setting: to `O=c1ccn([C@@H]2O[C@H](CO)[C@@H](O)[C@H]2O)c(=O)[nH]1` [Compound 1a, Uridine, reference compound] belongs greater than 50 µM.
Turning to `CC[C@@]1(O)C(=O)OCc2c1cc1n(c2=O)Cc2cc3c(CN(C)C)c(O)ccc3nc2-1` [topotecan, reference compound], the IC50 in data set [3] (Homo sapiens, EZ4U assay, read-out: concentration causing the death of half the HeLa cells) came to 2 µM.
In the case of `O=C(OC[C@H]1O[C@@H](n2cccnc2=O)[C@H](OC(=O)c2ccccc2)[C@@H]1OC(=O)c1ccccc1)c1ccccc1` [Compound 6, 1-(2′,3′,5′-Tri-O-benzoyl-β-D-ribofuranosyl)-2-pyrimidone], in data set [1], the IC50 turned out to be 6 ± 0.7 µM. Further, the CC50 at 3 days in data set [2] was greater than 100 µM. Besides, the “change of cytotoxicity of the compound” value in data set [4] was “statistically insignificant”.
Turning to `O=C(OC[C@H]1O[C@@H](n2ccc(=O)[nH]c2=O)[C@H](OC(=O)c2ccccc2)[C@@H]1OC(=O)c1ccccc1)c1ccccc1` [Compound 2a, 2′,3′,5′-tri-O-benzoyluridine], the IC50 in data set [1] turned out to be 6.3 ± 0.4 µM. Also, the “change of cytotoxicity of the compound” value in data set [4] is “Inactive”.
`CC(=O)O[C@@H]1O[C@H](COC(=O)c2ccccc2)[C@@H](OC(=O)c2ccccc2)[C@H]1OC(=O)c1ccccc1` [Compound 9, 1-O-acetyl-2,3,5-tri-O-Bz-β-D-Rib]: the IC50 in data set [1] was 4.2 ± 0.3 µM.
Turning to `O=C(OCC1OC(n2cc(F)c(=O)[nH]c2=O)C(OC(=O)c2ccccc2)C1OC(=O)c1ccccc1)c1ccccc1` (stereo not drawn) [Compound 2b, 2′,3′,5′-Tri-O-benzoyl-5-fluorouridine], the IC50 in data set [1] was found to be 8.5 ± 1.4 µM. Further, in data set [2], the CC50 at 3 days was greater than 100 µM. For the same compound, the cells died in data set [3] was 30–45%. In data set [4], the “change of cytotoxicity of the compound” value is recorded as “Inactive”.
Take `O=c1[nH]c(=O)n([C@@H]2O[C@H](CO)[C@@H](O)[C@H]2O)cc1I` [Compound 1d, 5-Iodouridine, reference compound]: the IC50 in data set [1] is greater than 50 µM.
Regarding `Nc1ccn([C@@H]2O[C@H](COC(=O)c3ccccc3)[C@@H](OC(=O)c3ccccc3)[C@H]2OC(=O)c2ccccc2)c(=O)n1` [Compound 8, 2′,3′,5′-tri-O-benzoylcytidine], the IC50 in data set [1] came out at 4.3 ± 0.7 µM. Further, in data set [2], the half-maximal cytotoxic concentration (CC50) at 3 days was greater than 100 µM. For the same compound, the “change of cytotoxicity of the compound” value in data set [4] is recorded as “significantly (p = 0.05, Mann–Whitney U test) enhanced; also recorded: synergistic effect with topotecan; also recorded: enhanced the cytotoxicity”. The “sensitizing effect” value in data set [4] (setting [5]) is on record as “doubled the cytotoxicity of topotecan; also recorded: doubling topotecan’s activity”.
Take `O=C(O[C@@H]1[C@H](OC(=O)c2ccccc2)[C@@H](CO)O[C@H]1n1ccc(=O)[nH]c1=O)c1ccccc1` [Compound 4a, 2′,3′-di-O-benzoyluridine]: the IC50 in data set [1] was 23 ± 6 µM. Besides, the CC50 at 3 days in data set [2] is greater than 100 µM.
Turning to `O=C(OC[C@H]1O[C@@H](n2cc(I)c(=O)[nH]c2=O)[C@H](OC(=O)c2ccccc2)[C@@H]1OC(=O)c1ccccc1)c1ccccc1` [Compound 2d, 2′,3′,5′-tri-O-benzoyl-5-iodouridine], the IC50 in data set [1] came to 0.6 ± 0.9 µM. Further, the CC50 at 3 days in data set [2] is greater than 100 µM. Also, the “change of cytotoxicity of the compound” value in data set [4] is reported as “Inactive”.
Turning to `Cc1cn([C@@H]2O[C@H](CO)[C@@H](O)[C@H]2O)c(=O)[nH]c1=O` [Compound 1e, 5-Methyluridine (Ribothymidine), reference compound], the IC50 in data set [1] was greater than 50 µM.
On to `O=C(OC[C@H]1O[C@@H](n2ccc(=O)nc2)[C@H](OC(=O)c2ccccc2)[C@@H]1OC(=O)c1ccccc1)c1ccccc1` [Compound 5, 1-(2′,3′,5′-Tri-O-benzoyl-β-D-ribofuranosyl)-4-pyrimidone], for which, in data set [1], the IC50 was 18 ± 1 µM. Also, the “change of cytotoxicity of the compound” value in data set [4] is recorded as “significant only at the maximum concentration, 100 μM; also recorded: at a concentration of 20 μM, no synergy with topotecan was observed; also recorded: enhanced the cytotoxicity”. The “sensitizing effect” value in data set [4] (compound at 50 μM, various doses of topotecan (significant at 10 μM)) is on record as “weak sensitizing effect”.
